# Assay results as given in patent publication US20210161999A1, “COMPOSITIONS AND METHODS RELATED TO OVERCOMING INNATE IMMUNE BARRIERS TO CANCER IMMUNOTHERAPY” (Health Research, Inc., priority 2018, published 2021).
# Entries after “also recorded” stand apart in the source; their conditions may differ.
# Key:
# [1] = test system: PMN suppressor phenotype (suppression of anti-CD3/CD28-stimulated T cell proliferation); assay: Coculture of PMN with ascites supernatants and anti-CD3/CD28-stimulated T cells; T cell proliferation by [3H] thymidine incorporation; assay type: cell-based, human
# Experimental: Freshly isolated T cells (1e5) were stimulated with anti-CD3/CD28 Dynabeads (2.5 μl; Thermo Fisher Scientific) and cocultured with autologous PMN (1:1) and ascites supernatants (50% final well volume) in an incubator at 37° C., 5% CO2. After 72 h, [^3H] thymidine (1 μCi per well) was added and allowed to incorporate for 16-18 h. Cells were harvested onto a Filtermat and counted on a Beta counter. Results are expressed as net cpm [calculated by subtracting the average cpm of unstimulated T cells from the average cpm of stimulated T cells].
# Where indicated, T cells, PMN, and ascites supernatants underwent various pretreatments. Where indicated, T cells were pretreated for lh with neutralizing antibody against ICAM-I (1-10 μg), IgG1 isotype (1-10 μg), or media (RPMI 1640, 5-10% heat-inactivated FBS, HEPES, sodium pyruvate, non-essential amino acids, and penicillin-streptomycin).
# Where indicated, PMN were pretreated for lh with neutralizing antibody against CD11b (1-10 μg), TGF-beta receptor 1 (1-10 μg) or IgG1 isotype (1-10 μg); thapsigargin (THG, 0.5-2 μM), diphenyleneiodonium (DPI, 1-25 μM), N-Formylmethionine-leucyl-phenylalanine (fMLF, 1-100 nM), brefeldin-A (1-10 μg/mL), ER export inhibitor 1 (Exol, 20-75 μM), CI-amidine (10-20 μM), SNARE decoys: TAT-SNAP23 (0.6-0.9 μg/mL), TAT-SYN4 (0.6-0.9 μg/mL), TAT-GST (0.6-0.9 μg/mL) (produced as described in the laboratory of Dr. Kenneth McLeish), puromycin and actinomycin-D (1-5 μg/mL), or with media.
# Where indicated, ascites supernatants were pretreated with heat (56° C., lh) to denature heat-labile constituents or proteinase-K (100 μM, 37° C., 12 h) to degrade proteins. Two formulations of compstatin, a peptide C3 inhibitor, were used: CS (250 μM, 30° C., 2 h, Tocris) and Cp40 (1.25-20 μM, 30° C., 2 h), as well as a scramble peptide. In separate studies, ascites supernatants were ultra-centrifuged (100,000g, 4° C., 1.5 h) to separate the membrane-rich (MR-ASC) and membrane-depleted (MD-ASC) fractions. In others, ascites supernatants were pretreated for lh with neutralizing antibody against C5 (0.5-1.0 μg, A217; Quidel, San Diego, Calif.) or C7 (0.5-1.0 μg, A221; Quidel) or IgG1 isotype (0.5-1.0 μg), or with OmCI (0.6-1.2 μM), a peptide C5 inhibitor derived from the saliva of Ornithodoros moubata (35, 36).
# T cells = assay: Surface expression of PD-1, LAG-3 and CTLA-4 on stimulated T cells after coculture (flow cytometry); assay type: cell-based, human; conditions: coculture with Cp40-ASC and PMN, compared to unstimulated (n=6)
# Experimental: FIG. 6. Combination of ascites and PMN prevents T cell activation and is independent of exhaustion. T cells (CD3^+) and PMN were used in autologous coculture at 1:1. PMN and/or ascites supernatants (ASC; 50% final well volume) were added to anti-CD3/CD28-stimulated T cells. At 24, 48, and 72 h, T cells were analyzed for surface and intracellular expression of markers for activation, co-stimulation, and function. Surface expression of A) CD62L, B) CD69, C) CD4OL, and D) CD107a were evaluated at baseline (on y-axis) and at 24, 48, and 72 h (n=2). E-M) PD-1, LAG-3, and CTLA-4 expression was evaluated (n=4). CD8^+ T cells at 72 h are represented here in representative MFI overlays (E-G) and quantification (H-J); unstimulated T cells in media, grey solid; anti-CD3/CD28-stimulated, black dashed line; anti-CD3/CD28-stimulated+PMN, purple solid line; anti-CD3/CD28-stimulated+ASC, orange solid line; anti-CD3/CD28-stimulated+ASC+PMN, green solid line. […] N) At 72 h, intracellular expression of IFN-gamma was reduced as compared to stimulated alone (n=3). O-P) Combination of ASC and PMN reduced anti-CD3/CD28-stimulated T cell IL-2 levels (pg/mL) in supernatants to ND after 24 (O) and 72 h (P) of coculture (n=4). Background levels of PMN or ASC were ND; ND=non-detectable. Q) CTL activity of NY-ESO-1157-165-specific CD8^+ T cells directed at SK29 target cells pulsed with the NY-ESO-1 peptide was unaffected by coculture with ASC and/or PMN (n=3). Symbols represent individual samples (n) and bars represent SEM. Statistical comparisons were by Mann-Whitney (*, p<0.05; **, p<0.01; ***, p<0.001; ns, not significant). Results were consistent between CD4^+ and CD8^+ T cells.
# Data were analyzed using FCS Express 6.
# Fc receptors were blocked to prevent non-specific antibody binding prior to staining (15 min, 4° C.; anti-mouse CD16/CD32, clone 2.4G2; BD Biosciences). For phenotyping of PMN, antibodies targeted to human CD45 (clone REA747), CD15 (VIMC6) (Miltenyi Biotec, Inc.), CD63 (H5C6), CD66b (G10F5), and CD35 (Ell) (Biolegend) were used. […]
# [2] = PMN viability (PI neg, Annexin-V neg) after exposure to treated ascites; conditions: human, PMN (neutrophils) exposed to peptide-treated ascites
# Experimental: (§1) Where indicated, cells were pelleted for immunophenotyping and supernatants were saved for ELISA at time points throughout coculture. Viability was assessed by staining with Annexin V and/or PI (Dead Cell Apoptosis Kit, V13241, Thermo Fisher Scientific), following the manufacturer's protocols. For surface phenotyping and intracellular staining, cells were stained in buffer (DPBS, 1% BSA, 2 mM EDTA) and Cytofix/Cytoperm buffer kit (BD Biosciences), respectively, following the manufacturer's protocols. Data were analyzed using FCS Express 6.
# PMN = assay: as above; conditions: 24 h exposure to Cp40-treated ascites
# Experimental: as §1
smiles,measurement,setting,value
CC[C@H](C)[C@H](NC(=O)[C@H](N)Cc1ccc(O)cc1)C(=O)N[C@H]1CSSC[C@@H](C(=O)N(C)[C@H](C(N)=O)[C@@H](C)CC)NC(=O)[C@H](CCCNC(=N)N)NC(=O)[C@H](Cc2c[nH]cn2)NC(=O)[C@H](C)NC(=O)CN(C)C(=O)[C@H](Cc2c[nH]c3ccccc23)NC(=O)[C@H](CC(=O)O)NC(=O)[C@H](CCC(N)=O)NC(=O)[C@H](Cc2cn(C)c3ccccc23)NC(=O)[C@H](C(C)C)NC1=O [Cp40],effect on PMN suppressor phenotype,"[1]; added to ASC 2 h prior to coculture with PMN and T cells, CS 250 μM, Cp40 20 μM, scramble peptide 20 μM",completely abrogated the PMN suppressor phenotype; also recorded: fully abrogated the PMN suppressor phenotype; also recorded: completely abrogated the neutrophil suppressor phenotype
same,Cp40 concentration sufficient to abrogate the PMN suppressor phenotype,"[1]; concentration-titration study, FIG. 15B",2.5-20 ∥M
same,Cp40 concentration sufficient to fully abrogate the PMN suppressor phenotype,"[1]; titration study, ASC pretreated (n=3)",5 µM
same,CTLA-4 expression on stimulated T cells,T cells,showed an upwards trend; also recorded: upregulated relative to unstimulated T cells
same,LAG-3 expression on stimulated T cells,T cells,unaffected; also recorded: did not result in upregulation
same,PD-1 expression on stimulated T cells,T cells,unaffected; also recorded: did not result in upregulation
same,"viability at 24 h, 20 µM",[2],68 ± 8%
same,neutrophil viability versus untreated or scramble peptide-treated ascites,PMN,similar
